#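 Assay format: 96-well plates, 48-hour exposure. Here, GI50 denotes the concentration required for 50% inhibition of growth. TGI is the concentration that stops growth completely.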
# Columns and labels:
# Assay in all cases: inhibition of tumour cell growth, NCI panel, 48 h
# CCRF-CEM leukemia = system: CCRF-CEM leukemia
# HCC-2998 colon = system: HCC-2998 colon
# HS 578T breast = system: HS 578T breast
# MDA-MB-435 = system: MDA-MB-435
# NCI-H226 lung = system: NCI-H226 lung
# SF-295 CNS = system: SF-295 CNS
# SR leukemia = system: SR leukemia
# TK-10 renal = system: TK-10 renal
# U251 CNS = system: U251 CNS
# UO-31 renal = system: UO-31 renal
# SNB-78 CNS = system: SNB-78 CNS
# DMS 114 small cell lung = system: DMS 114 small cell lung
# 786-0 renal = system: 786-0 renal
# BT-549 breast = system: BT-549 breast
SMILES,TGI (CCRF-CEM leukemia),TGI (HCC-2998 colon),TGI (HS 578T breast),TGI (MDA-MB-435),TGI (NCI-H226 lung),TGI (SF-295 CNS),TGI (SR leukemia),TGI (TK-10 renal),TGI (U251 CNS),TGI (UO-31 renal),TGI (SNB-78 CNS),TGI (DMS 114 small cell lung),TGI (786-0 renal),GI50 (BT-549 breast),TGI (BT-549 breast),GI50 (HCC-2998 colon),GI50 (MDA-MB-435),GI50 (SF-295 CNS),GI50 (TK-10 renal),GI50 (UO-31 renal)
CC1(C)OCC(CO)(CO)CO1,> 100 µM,> 100 µM,> 100 µM,> 100 µM,> 100 µM,> 100 µM,> 100 µM,> 100 µM,> 100 µM,> 100 µM,–,–,–,–,–,–,–,–,–,–
Cc1cc(=O)oc2c1cc1ccc3cccc4ccc2c1c34,> 100 µM,–,–,–,> 100 µM,> 100 µM,–,> 100 µM,> 100 µM,> 100 µM,> 100 µM,–,–,–,–,–,–,–,–,–
O=C=C=P(c1ccccc1)(c1ccccc1)c1ccccc1,> 100 µM,> 100 µM,–,–,> 100 µM,> 100 µM,> 100 µM,–,> 100 µM,> 100 µM,> 100 µM,> 100 µM,–,–,–,–,–,–,–,–
ICC1CCCO1 (stereo not given),> 100 µM,> 100 µM,–,–,> 100 µM,> 100 µM,> 100 µM,> 100 µM,> 100 µM,–,> 100 µM,> 100 µM,–,–,–,–,–,–,–,–
O=Cc1cn(CCCCCCCCn2cc(C=O)c3ccccc32)c2ccccc12,> 10 µM,> 10 µM,> 10 µM,> 10 µM,> 10 µM,> 10 µM,> 10 µM,> 10 µM,> 10 µM,> 10 µM,–,–,–,–,–,–,–,–,–,–
CC(=O)[O-].CC(=O)[O-].O=C(N/N=C/c1cc(Cl)cc(Cl)c1[OH2+])c1ccncc1.[Mn+2],2.15 µM,17 µM,–,–,12.1 µM,7.48 µM,4.4 µM,27.3 µM,24.3 µM,18.6 µM,–,–,15.6 µM,–,–,–,–,–,–,–
Cc1cc(O)c2c(c1)C(=O)c1c(c(O)cc(O)c1-c1c(O)cc(O)c3c1C(=O)c1cc(C)cc(O)c1C3=O)C2=O,48.3 µM,35.2 µM,–,–,50 µM,38.3 µM,–,–,46 µM,15.8 µM,105 µM,63 µM,–,–,–,–,–,–,–,–
CC(C)c1oc(=O)cc2c1C(O)C1OC(=O)C3(C)C(O)C4OC4C2(C)C13 (stereo not given),3.07 µM,7.92 µM,–,–,19.3 µM,12.8 µM,–,–,25 µM,15.5 µM,52 µM,6.31 µM,–,–,–,–,–,–,–,–
Cc1nc2nc(C)n(CCN3CCOCC3)c(=O)c2c(-c2cccc([N+](=O)[O-])c2)c1C(=O)CCCCCCCCCCN1CCC(c2ccccc2)(c2ccccc2)CC1,–,4.56 µg/mL,–,3.79 µg/mL,–,2.65 µg/mL,–,4.45 µg/mL,–,3.52 µg/mL,–,–,–,2.33 µg/mL,4.48 µg/mL,2.37 µg/mL,1.9 µg/mL,0.78 µg/mL,2.41 µg/mL,1.71 µg/mL
CC(=O)OCC1(C)C(O)CCC2(C)C1CCC1CC3CC12CCC3(O)CO (stereo not given),> 100 µM,> 100 µM,> 100 µM,> 100 µM,> 100 µM,> 100 µM,> 29.4 µM,> 100 µM,> 100 µM,> 100 µM,–,–,> 100 µM,–,> 100 µM,–,–,–,–,–
CCN(CC)CCNc1ccc2ncn3c4ccc(OC)cc4c(=O)c1c23,19 µM,13.7 µM,30.4 µM,18.6 µM,13.7 µM,11.6 µM,> 22.7 µM,29.2 µM,5.31 µM,11.8 µM,30.9 µM,25.2 µM,15.5 µM,–,33 µM,–,–,–,–,–
c1ccc(C2=NN2c2ccccc2)cc1,> 100 µM,> 100 µM,–,> 100 µM,> 100 µM,> 100 µM,> 100 µM,> 100 µM,> 100 µM,> 100 µM,–,–,–,–,> 100 µM,–,–,–,–,–
C=C1CC(OC)(C(OC)C(=O)N[C@H]2OCO[C@H]3C2O[C@H](C[C@@H](COC)OC)C(C)(C)C3OC)O[C@H](C)[C@@H]1C (stereo not given in full),1.43 µM,–,–,–,7.73 µM,3.28 µM,–,–,4.13 µM,5.71 µM,4.81 µM,13.9 µM,–,–,–,–,–,–,–,–
Cc1[nH]c(C)c(CN(C)C)c1CN(C)C,> 100 µM,> 100 µM,> 100 µM,> 100 µM,> 100 µM,> 100 µM,–,> 100 µM,> 100 µM,> 100 µM,–,–,> 100 µM,–,> 100 µM,–,–,–,–,–
CN1CCC2(c3ccccc3)CC(=O)/C(=C/c3ccc(Cl)c(Cl)c3)C1C2 (stereo not given),5.15 µM,–,> 45.7 µM,5.14 µM,4.69 µM,6.52 µM,4.74 µM,11.7 µM,3.47 µM,3.82 µM,–,–,5.35 µM,–,6.83 µM,–,–,–,–,–
O=C(O)CCC(NC(=O)c1ccc(Nc2cnc3cc(C(F)(F)F)ccc3n2)cc1)C(=O)O (stereo not given),> 100 µM,> 100 µM,–,–,> 100 µM,> 100 µM,–,–,> 100 µM,> 100 µM,> 100 µM,> 100 µM,–,–,–,–,–,–,–,–
CCOP(=O)(C/C=C/Cn1ncc(=O)[nH]c1=O)OCC,> 100 µM,> 100 µM,> 100 µM,> 100 µM,> 100 µM,–,–,> 100 µM,> 100 µM,> 100 µM,–,–,–,–,> 100 µM,–,–,–,–,–
CC1(c2ccccc2)O[C@@H]2C[C@H]3[C@@H]4CCC5=CC(=O)C=C[C@]5(C)[C@@]4(F)[C@@H](O)C[C@]3(C)[C@]2(C(=O)CO)O1 (stereo not given in full),–,33.3 µM,45.4 µM,33.1 µM,31 µM,36.2 µM,76.9 µM,41.6 µM,33.3 µM,33 µM,–,–,32.2 µM,–,38.6 µM,–,–,–,–,–
